Counter-ions that a name gives are not always drawn.

The results in this text go back to patent US8034810B2, “Arylsulfonamido-substituted hydroxamic acid derivatives” (Novartis AG, priority 1999, dated 2011).

The first experiment deals with T1, MMP2 (gelatinase A) (Homo sapiens, UniProt P08253).
T1 construct: made in house; host or cells: Tn insect cells, baculovirus (pFAST BAC 1)
T1 sequence (P08253 110-660): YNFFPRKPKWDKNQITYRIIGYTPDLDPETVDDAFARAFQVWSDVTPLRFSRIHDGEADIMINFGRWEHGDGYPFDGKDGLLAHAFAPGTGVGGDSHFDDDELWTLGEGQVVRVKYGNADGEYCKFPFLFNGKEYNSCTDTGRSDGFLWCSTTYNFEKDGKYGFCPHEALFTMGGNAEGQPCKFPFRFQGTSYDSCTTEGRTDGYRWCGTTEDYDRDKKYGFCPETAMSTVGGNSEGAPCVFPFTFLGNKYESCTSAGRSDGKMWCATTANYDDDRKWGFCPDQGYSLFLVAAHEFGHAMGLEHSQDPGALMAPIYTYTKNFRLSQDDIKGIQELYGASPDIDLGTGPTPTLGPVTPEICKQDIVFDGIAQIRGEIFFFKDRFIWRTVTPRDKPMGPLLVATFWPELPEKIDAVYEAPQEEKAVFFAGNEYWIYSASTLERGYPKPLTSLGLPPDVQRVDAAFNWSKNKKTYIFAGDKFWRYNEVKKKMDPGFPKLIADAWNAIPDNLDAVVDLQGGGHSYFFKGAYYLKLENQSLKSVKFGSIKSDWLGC
Kind of experiment: In vitro inhibition of MMP2 (gelatinase A), fluorogenic peptide substrate. In kind it is biochemical. The settings on record: APMA-activated recombinant human proMMP2; substrate 10 μM; 37° C. The protocol:
The inhibitory activities of compounds of formula I on MT1-MMP, MMP1 (collagenase 1) and MMP2 (gelatinase A) can be determined as follows:
Stock solutions of substrate (MCA-Pro-Leu-Gly-Leu-Dpa-Ala-Arg-NH2, Knight, C. G., Willenbrock, F., Murphy, G., A novel coumarin-labelled peptide for sensitive continuous assays of the matrix metalloproteinases, FEBS lett., 296, 263-266, (1992)), are prepared in 100% DMSO at a concentration 1.0 mM. Stock solutions of inhibitors are prepared in 100% DMSO. The inhibitor is diluted into the assays from a solution in 100% DMSO, and controls substitute an equal volume of DMSO so that the final DMSO concentration from inhibitor and substrate dilutions in all assays is 6.0%. Assays are performed in assay buffer (150 mM NaCl, 10 mM CaCl2, 50 mM Tris-Cl pH7.5, 0.05% Brij-35) containing 6.0% DMSO once the substrate and inhibitor are diluted into it. The substrate concentration used in the assays is 10 μM. The test is carried out at 37° C. The fluorescence changes are monitored using an excitation wavelength of 320 nm and an emission wavelength of […]. The reaction mixture is added in duplicate to appropriate wells of a 96 well microfluor plate. The reaction mixture is preincubated with the inhibitor for 30 min, the reaction is started by the addition of MMP enzyme and the fluorescence intensity is measured for 10 min. A time point that is on a linear part of the curve is chosen to determine the activity. The inhibition results are expressed as the inhibitor concentrations that produced 50% inhibition (IC50) of the activity in the control (non-inhibited) reaction. In this test, the compounds of the formula I and their pharmacologically acceptable salts have an inhibiting concentration IC50 [μmol/litre] of 0.0001 and 0.030, usually of 0.0002 to 0.010, for MMP2 and an inhibiting concentration IC50 [μmol/litre] of 0.0005 and 0.125, usually of 0.001 to 0.05, for MT1-MMP.
Plasmid: The cDNA for human proMMP2 is supplied by Prof. Motoharu Seiki, Institute of Medical Science, The University of Tokyo. The cDNA encoding a full length on human pro-MMP2 is generated by PCR of cDNA derived from RNA isolated from human HT1080 cells (ATCC# CCL121). The primers to generate this cDNA are GAATTCGATGGAGGCG CTAATGGCCCGG and […] corresponding to full length human pro-MMP2 of the reported cDNA sequence, GenBank accession number J03210. The resulting 2.0 Kb PCR fragment is cloned into EcoR1/Xho 1 site of pFAST BAC 1 vector (pBAC-MMP2) (Collier, I. E., Wilhelm, S. M., Eisen, A. Z., Manner, B. L., Grant, G. A., Seltzer, J. L., Kronberger, A., He, C., Bauer, E. A. and Goldberg, G. I. J. Biol. Chem., 263:6579-6587, 1988).
Expression and Purification: For baculovirus expression of r-proMMP2, pBAC-MMP2 is transformed into DH10BAC competent cells to produce a r-proMMP2 bacmid DNA. The recombinant bacmid DNA is transfected into cultured insect cells (Tn cells) with Cellfectin reagent (Gibco BRL). Recombinant baculovirus are plaque purified to homogeneity and are used to generate high titer stocks of the recombinant baculovirus. Expression of r-proMMP2 is confirmed by gelatin zymography.
Culture fluids of Tn cells infected with baculovirus are centrifuged and filtrated through a […] pore size filter to remove cell debris. The recombinant proMMP2 as absorbed to gelatin Sepharose 4B (Pharmacia Biotech) in equilibration buffer of in 25 mM Tris-HCl (pH 7.5), 1 M NaCl, 10 mM CaCl2, 0.05% Briji 35 at 4° C. After washing the beads with equilibration buffer, r-proMMP2 as eluted with equilibration buffer containing 10% DMSO. The enzyme are stored at 4° C. until activation. For assay, the purified proMMP2 is activated with 1 mM APMA for 1 hr at 37° C.
For the compound “2-[(Cyclopropylmethoxy-benzenesulfonyl)-(4-[1,2,4]triazol-1-yl-benzyl)-amino]-N-hydroxyacetamide-hydrochloride salt [Example 82b]”, the IC50 (usually the concentration that inhibits the measured activity by half) amounted to 10.4 nM.
On the same count and under the same terms, with `COc1ccc(CN(CC(=O)NO)S(=O)(=O)c2ccc(OCCCCl)cc2)cc1` [Example 68, 2-{[4-(3-chloro-propoxy)-benzenesulfonyl]-(4-methoxy-benzyl)amino}-N-hydroxy-acetamide] the figure was 0.7 nM; with `C#CCOc1ccc(S(=O)(=O)N(CC(=O)NO)Cc2ccc(OC)cc2)cc1` [Example 75, [(4-methoxy-benzyl)-[4-prop-2-ynyloxy-benzenesulfonyl]-amino]-N-hydroxy-acetamide], 1 nM.
`C=CCCOc1ccc(S(=O)(=O)N(CC(=O)NO)Cc2ccc(-n3cncn3)cc2)cc1` [Example 79, 2-[(4-but-3-enyloxy-benzenesulfonyl)-(4-[1,2,4]triazol-1-yl-benzyl)-amino]-N-hydroxy-acetamide-hydrochloride salt]: the IC50 stood at 0.2 nM.
Consider `C=CCCOc1ccc(S(=O)(=O)N(CC(=O)NO)Cc2ccc(-n3ccnc3)cc2)cc1` [Example 80, 2-[(4-But-3-enyloxy-benzenesulfonyl)-(4-imidazol-1-yl-benzyl)-amino]-N-hydroxy-acetamide-hydrochloride], for which the IC50 was found to be 8 nM.
As to `C=CCCOc1ccc(S(=O)(=O)N(CC(=O)NO)Cc2ccc(N3CCOCC3)cc2)cc1` [Example 81, 2-[(4-But-3-enyloxy-benzenesulfonyl)-(4-morpholin-4-yl-benzyl)-amino]-N-hydroxy-acetamide-hydrochloride], the IC50 is 10.4 nM.
In the case of `O=C(CN(Cc1ccc(-n2cncn2)cc1)S(=O)(=O)c1ccc(OCCC2CC2)cc1)NO` [Example 82a], the IC50 came to 40.2 nM.
Same read-out and setting: with `O=C(CN(Cc1ccc(-n2cncn2)cc1)S(=O)(=O)c1ccc(OCc2ccoc2)cc1)NO` [Example 82c] the figure was 5.3 nM.
On the same count and under the same terms, with `C=CCCOc1ccc(S(=O)(=O)N(CC(=O)NO)Cc2cccc(F)n2)cc1` [Example 83a, 2-([4-But-3-enyloxy-benzenesulfonyl]-(6-fluoro-pyridine-2-yl)methyl-amino)-N-hydroxyacetamide] the figure was 2.1 nM.
Still for that read-out and setting: then `C=CCCOc1ccc(S(=O)(=O)N(CC(=O)NO)Cc2ccc(N3CCCC3)cc2)cc1` [Example 84a, 2-[(4-But-3-enyloxy-benzenesulfonyl)-(4-(pyrrolidin-1-yl)-benzyl)-amino]-N-hydroxyacetamide-hydrochloride], with 14.7 nM.

For a further experiment, the system named is B16-F10 melanoma cells. Kind of experiment: B16-F10 melanoma experimental metastasis model, lung tumor nodules. Format: in vivo, BDF1 mice. The conditions noted are these: mice, tumor cells i.v.; p.o. 120 mg/kg/dosing; lungs on day 14. The protocol:
The B16-F10 melanoma experimental metastasis model was studied following the method of Fidler. Cells were harvested by trypsinization and washed once with serum-containing medium and three times with cold PBS and then kept on ice. Mice were injected in the tail vein with a suspension of tumor cells (2×10^5 cells/0.1 ml of PBS). Animals were dosed with compounds p.o. at −1 hr, +5 hrs, 23 hrs and 29 hrs relative to the time of the cell injection at the first two days (day 0, 1). After that the animals were dosed once a day in the morning. Compounds were administered as a suspension in 1% carboxymethyl cellulose (Wako, Japan) at a dose of 120 mg/kg/dosing. Vehicle alone was administered to the control group. On day 14, the lung of the mice were removed after sacrificing the animals and the numbers of the tumor nodules were counted manually after fixing with Bouin's solution (2% picric acid in destilled water:10% formaldehyde neutral buffer solution:acetic acid=15:5:1). In this test a decrease in the number of tumor nodules of 47% compared to the vehicle alone was determined for the compound of Example 68.
Regarding `COc1ccc(CN(CC(=O)NO)S(=O)(=O)c2ccc(OCCCCl)cc2)cc1` [Example 68, 2-{[4-(3-chloro-propoxy)-benzenesulfonyl]-(4-methoxy-benzyl)amino}-N-hydroxy-acetamide], the “decrease in the number of tumor nodules compared to the vehicle alone” value turned out to be 47%.
